Experimental data as given in patent US20090099140A1, “20-Alkyl, Gemini Vitamin D3 Compounds and Methods of Use Thereof” (BioXell S.p.A., priority 2005, published 2009).

How the values were obtained:
[1] = Determination of maximum tolerated dose (MTD), highest oral dose without hypercalcemia (serum calcium); assay type: in vivo; settings: mouse, in vivo, po; eight week-old female C57BL/6 mice, p.o. daily for four days in miglyol; highest dose without hypercalcemia (serum calcium >10.7 mg/dl) on day five; read-out: MTD (mice)
Protocol: The maximum tolerated dose of the vitamin D3 compounds of the invention were determined in eight week-old female C57BL/6 mice (3 mice/group) dosed orally (0.1 ml/mouse) with various concentrations of Vitamin D3 analogs daily for four days. Analogs were formulated in miglyol for a final concentration of 10, 30, 100 and 300 μg/kg when given at 0.1 ml/mouse p.o. daily. Blood for serum calcium assay was drawn by tail bleed on day five, the final day of the study. Serum calcium levels were determined using a colorimetric assay (Sigma Diagnostics, procedure no. 597). The highest dose of analog tolerated without inducing hypercalcemia (serum calcium >10.7 mg/dl) was taken as the maximum tolerated does (MTD).

IFN-γ production = IFN-γ production by allogeneic T cell activation in the mixed leukocyte response (MLR); assay type: cell-based; settings: 120 h; MLR of allogeneic PBMC from 2 different donors, 5 days, IFN-γ by ELISA; 50% inhibition of IFN-γ production
Protocol: Immature dendritic cells (DC) were prepared as described in Romani, N. et al., J. Immunol. Meth. 196:137. IFN-γ production by allogeneic T cell activation in the mixed leukocyte response (MLR) was determined as described in Penna, G., et al., J. Immunol., 164: 2405-2411 (2000).
Briefly, peripheral blood mononuclear cells (PBMC) were separated from buffy coats by Ficoll gradient and the same number (3×105) of allogeneic PBMC from 2 different donors were co-cultured in 96-well flat-bottom plates. After 5 days, IFN-γ production in the MLR assay was measured by ELISA and the results expressed as amount (nM) of test compound required to induce 50% inhibition of IFN-γ production (IC50) (Table 1).

C=C1/C(=C\C=C2/CCC[C@@]3(C)C2CC[C@@H]3[C@@](C)(C/C=C/C(O)(C(F)(F)F)C(F)(F)F)CCCC(C)(C)O)C[C@@H](O)C[C@@H]1O (stereo partly drawn) [Compound 9, (20R)-1,25-Dihydroxy-20-[(2E)-5,5,5-trifluoro-4-hydroxy-4-trifluoromethyl-pent-2-enyl]-cholecalciferol]
MTD at 4 days [1]: 0.1 µg/kg | IC50 (IFN-γ production): 0.049 nM

C=C1/C(=C\C=C2/CCC[C@@]3(C)C2CC[C@@H]3[C@](C)(C/C=C/C(O)(C(F)(F)F)C(F)(F)F)CCCC(C)(C)O)CC(O)C[C@@H]1F (stereo partly drawn) [Compound 15, (20S)-1α-Fluoro-25-hydroxy-20-[(2E)-5,5,5-trifluoro-4-hydroxy-4-trifluoromethyl-pent-2-enyl]-cholecalciferol]
MTD at 4 days [1]: 10 µg/kg | IC50 (IFN-γ production): 0.119 nM

CC(C)(O)CCCC(C)(CCCC(C)(C)O)[C@H]1CCC2/C(=C/C=C3/CC(O)C[C@H](O)C3)CCC[C@@]21C (some centres unmarked) [Compound 2, 1,25-Dihydroxy-20-(4-hydroxy-4-methyl-pentyl)-19-nor-cholecalciferol]
MTD at 4 days [1]: < 30 µg/kg | IC50 (IFN-γ production): 0.744 nM

C=C1/C(=C\C=C2/CCC[C@@]3(C)C2CC[C@@H]3[C@@](C)(C/C=C\C(O)(C(F)(F)F)C(F)(F)F)CCCC(C)(C)O)C[C@@H](O)C[C@@H]1O (stereo partly drawn) [Compound 8, (20R)-1,25-Dihydroxy-20-[(2Z)-5,5,5-trifluoro-4-hydroxy-4-trifluoromethyl-pent-2-enyl]-cholecalciferol]
MTD at 4 days [1]: 0.3 µg/kg | IC50 (IFN-γ production): 0.057 nM

C=C1/C(=C\C=C2/CCC[C@@]3(C)C2CC[C@@H]3[C@](C)(CC#CC(O)(C(F)(F)F)C(F)(F)F)CCCC(C)(C)O)CC(O)C[C@@H]1O (stereo partly drawn) [Compound 4, (20S)-1,25-Dihydroxy-20-(5,5,5-trifluoro-4-hydroxy-4-trifluoromethyl-pent-2-ynyl)cholecalciferol]
MTD at 4 days [1]: 0.3 µg/kg | IC50 (IFN-γ production): 0.049 nM

C=C1/C(=C\C=C2/CCC[C@@]3(C)C2CC[C@@H]3[C@](C)(CC#CC(O)(C(F)(F)F)C(F)(F)F)CCCC(C)(C)O)CC(O)C[C@@H]1F (stereo partly drawn) [Compound 13, (20S)-1α-Fluoro-25-hydroxy-20-(5,5,5-trifluoro-4-hydroxy-4-trifluoromethyl-pent-2-ynyl)-cholecalciferol]
MTD at 4 days [1]: 100 µg/kg | IC50 (IFN-γ production): 0.358 nM

CC(C)(O)CCC[C@@](C)(CC#CC(O)(C(F)(F)F)C(F)(F)F)[C@H]1CCC2/C(=C/C=C3/CC(O)C[C@H](O)C3)CCC[C@@]21C (stereo partly drawn) [Compound 10, (20S)-1,25-Dihydroxy-20-(5,5,5-trifluoro-4-hydroxy-4-trifluoromethyl-pent-2-ynyl)-19-nor-cholecalciferol]
MTD at 4 days [1]: 0.3 µg/kg | IC50 (IFN-γ production): 0.0436 nM

C=C1/C(=C\C=C2/CCC[C@@]3(C)C2CC[C@@H]3[C@](C)(C/C=C\C(O)(C(F)(F)F)C(F)(F)F)CCCC(C)(C)O)CC(O)C[C@@H]1F (stereo partly drawn) [Compound 14, (20S)-1α-Fluoro-25-hydroxy-20-[(2Z)-5,5,5-trifluoro-4-hydroxy-4-trifluoromethyl-pent-2-enyl]-cholecalciferol]
MTD at 4 days [1]: 100 µg/kg | IC50 (IFN-γ production): 1.01 nM

C=C1/C(=C\C=C2/CCC[C@@]3(C)C2CC[C@@H]3C(C)(CCCC(C)(C)O)CCCC(C)(C)O)CC(O)C[C@@H]1O (some centres unmarked) [Compound 1, 1,25-Dihydroxy-20-(4-hydroxy-4-methyl-pentyl)cholecalciferol]
MTD at 4 days [1]: 3 µg/kg | IC50 (IFN-γ production): 0.518 nM

[2H]C([2H])([2H])C(O)(CCCC(C)(C/C=C\C(O)(C(F)(F)F)C(F)(F)F)[C@H]1CCC2/C(=C/C=C3/C[C@@H](O)C[C@H](F)C3=C)CCC[C@@]21C)C([2H])([2H])[2H] (stereo partly drawn) [Compound 18, 1α-Fluoro-25-hydroxy-20S-20-(4-hydroxy-5,5,5-trideutero-4-trideuteromethyl-pentyl)-23Z-ene-26,27-hexafluorocholecalciferol]
MTD at 4 days [1]: 100 µg/kg | IC50 (IFN-γ production): 0.219 nM
